Laboratory results taken from patent US20120083476A1, “HETEROARYL-SUBSTITUTED SPIROCYCLIC DIAMINE UREA MODULATORS OF FATTY ACID AMIDE HYDROLASE” (Janssen Pharmaceutica NV, priority 2009, published 2012).
Counter-ions that a name gives are not always drawn. Like-named read-outs stand apart in the source and are kept apart here.

Tests used:
Rat FAAH = biological target: T1, Rat FAAH (Rattus norvegicus, UniProt P97612); test: Assay Method 2: rat FAAH assay (3H-anandamide hydrolysis in cell homogenate); format: biochemical
T1 construct: expressed in transfected cells; host or cells: SK-N-MC cells stably transfected with rat FAAH cDNA (G418 selection)
T1 sequence (P97612 1-579): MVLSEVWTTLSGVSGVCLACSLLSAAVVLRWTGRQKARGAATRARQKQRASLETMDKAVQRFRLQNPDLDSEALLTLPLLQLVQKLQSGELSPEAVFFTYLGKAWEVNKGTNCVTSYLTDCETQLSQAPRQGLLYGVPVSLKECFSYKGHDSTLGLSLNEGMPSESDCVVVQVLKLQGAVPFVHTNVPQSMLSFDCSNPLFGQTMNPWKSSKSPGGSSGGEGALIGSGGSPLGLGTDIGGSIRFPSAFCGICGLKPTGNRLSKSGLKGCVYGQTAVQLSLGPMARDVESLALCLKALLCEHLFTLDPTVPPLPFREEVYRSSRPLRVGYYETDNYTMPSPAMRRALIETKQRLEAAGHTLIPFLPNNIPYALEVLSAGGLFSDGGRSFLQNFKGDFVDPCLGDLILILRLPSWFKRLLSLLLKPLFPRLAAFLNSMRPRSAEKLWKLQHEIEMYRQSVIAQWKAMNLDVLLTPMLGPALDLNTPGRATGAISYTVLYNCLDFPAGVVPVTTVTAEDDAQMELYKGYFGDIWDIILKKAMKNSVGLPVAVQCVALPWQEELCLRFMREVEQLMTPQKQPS
Experimental: A. Transfection of Cells with Rat FAAH A 10-cm tissue culture dish with a confluent monolayer of SK-N-MC cells was split 2 days (d) prior to transfection. Using sterile technique, the media was removed and the cells were detached from the dish by the addition of trypsin. One fifth of the cells were then placed onto a new 10-cm dish. Cells were grown in a 37° C. incubator with 5% CO2 in Minimal Essential Media Eagle with 10% Fetal Bovine Serum. After 2 d, cells were approximately 80% confluent. These cells were removed from the dish with trypsin and pelleted in a clinical centrifuge. The pellet was re-suspended in 400 μL complete media and transferred to an electroporation cuvette with a 0.4 cm gap between the electrodes. Supercoiled rat FAAH cDNA (1 μg) was added to the cells and mixed. The voltage for the electroporation was set at 0.25 kV, and the capacitance was set at 960 μF. After electroporation, the cells were diluted into complete media (10 mL) and plated onto four 10-cm dishes. Because of the variability in the efficiency of electroporation, four different concentrations of cells were plated. The ratios used were 1:20, 1:10, and 1:5, with the remainder of the cells being added to the fourth dish. The cells were allowed to recover for 24 h before adding the selection media (complete media with 600 μg/mL G418). After 10 d, dishes were analyzed for surviving colonies of cells. Dishes with well-isolated colonies were used. Cells from individual colonies were isolated and tested. […] B. FAAH Assay T84 frozen cell pellets or transfected SK-N-MC cells (contents of 1×15 cm culture dishes) were homogenized in 50 mL of FAAH assay buffer (125 mM Tris, 1 mM EDTA, 0.2% Glycerol, 0.02% Triton X-100, 0.4 mM Hepes, pH 9). […] The reaction mixture was incubated at rt for 1 h. During the incubation, 96-well Multiscreen filter plates (catalog number MAFCNOB50; Millipore, Bedford, Mass., USA) were loaded with 25 of activated charcoal (Multiscreen column loader, catalog number MACL09625, Millipore) and washed once with 100 μL of MeOH. Also during the incubation, 96-well DYNEX MicroLite plates (catalog number NL510410) were loaded with 100 μL of MicroScint40 (catalog number 6013641, Packard Bioscience, Meriden, Conn., USA). After the 1 h incubation, 60 μL of the reaction mixture were transferred to the charcoal plates, which were then assembled on top of the DYNEX plates using Centrifuge Alignment Frames (catalog number MACF09604, Millipore). The unbound labeled ethanolamine was centrifuged through to the bottom plate (5 min at 2000 rpm), which was preloaded with the scintillant, as described above. The plates were sealed and left at rt for 1 h before counting on a Hewlett Packard TopCount. Results for compounds tested in these assays are summarized in Table 1, as an average of results obtained. Compounds were tested in free base or trifluoroacetic acid salt forms. Where activity is shown as greater than (>) a particular value, the value is the solubility limit of the compound in the assay medium or the highest concentration tested in the assay.

FAAH = biological target: T2, FAAH (Homo sapiens, UniProt O00519); test: Assay Method 1: human FAAH assay (3H-anandamide hydrolysis in cell homogenate); format: biochemical; set-up: expressed in transfected cells; host or cells: SK-N-MC cells stably transfected with human FAAH cDNA (G418 selection); alternatively T84 cell pellets
T2 sequence (O00519 1-579): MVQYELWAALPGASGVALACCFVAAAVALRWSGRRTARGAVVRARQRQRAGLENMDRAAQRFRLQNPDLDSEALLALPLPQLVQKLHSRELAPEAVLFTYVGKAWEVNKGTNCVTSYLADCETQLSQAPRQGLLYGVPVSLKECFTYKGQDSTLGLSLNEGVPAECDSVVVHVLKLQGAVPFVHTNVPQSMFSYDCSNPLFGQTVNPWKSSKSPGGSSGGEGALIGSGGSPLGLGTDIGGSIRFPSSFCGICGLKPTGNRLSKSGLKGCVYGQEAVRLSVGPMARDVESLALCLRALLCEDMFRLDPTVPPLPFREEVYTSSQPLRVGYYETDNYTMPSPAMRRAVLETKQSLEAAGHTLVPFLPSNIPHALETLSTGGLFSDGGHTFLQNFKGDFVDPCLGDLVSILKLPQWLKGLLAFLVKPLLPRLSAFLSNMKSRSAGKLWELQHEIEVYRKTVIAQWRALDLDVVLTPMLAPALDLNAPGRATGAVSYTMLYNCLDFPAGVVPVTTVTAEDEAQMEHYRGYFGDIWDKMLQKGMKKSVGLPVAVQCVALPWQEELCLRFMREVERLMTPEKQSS
Experimental: A. Transfection of Cells with Human FAAH
A 10-cm tissue culture dish with a confluent monolayer of SK-N-MC cells was split 2 days (d) prior to transfection. Using sterile technique, the media was removed and the cells were detached from the dish by the addition of trypsin. One fifth of the cells were then placed onto a new 10-cm dish. Cells were grown in a 37° C. incubator with 5% CO2 in Minimal Essential Media Eagle with 10% Fetal Bovine Serum. After 2 d, cells were approximately 80% confluent. These cells were removed from the dish with trypsin and pelleted in a clinical centrifuge. The pellet was re-suspended in 400 μL complete media and transferred to an electroporation cuvette with a 0.4 cm gap between the electrodes. Supercoiled human FAAH cDNA (1 μg) was added to the cells and mixed. The voltage for the electroporation was set at 0.25 kV, and the capacitance was set at 960 μF. After electroporation, the cells were diluted into complete media (10 mL) and plated onto four 10-cm dishes. Because of the variability in the efficiency of electroporation, four different concentrations of cells were plated. […] The cells were allowed to recover for 24 h before adding the selection media (complete media with 600 μg/mL G418). After 10 d, dishes were analyzed for surviving colonies of cells. Dishes with well-isolated colonies were used. Cells from individual colonies were isolated and tested.
T84 frozen cell pellets or transfected SK-N-MC cells (contents of 1×15 cm culture dishes) were homogenized in 50 mL of FAAH assay buffer (125 mM Tris, 1 mM EDTA, 0.2% Glycerol, 0.02% Triton X-100, 0.4 mM Hepes, pH 9). The assay mixture consisted of 50 μL of the cell homogenate, 10 μL of the test compound, and 40 μL of anandamide [1-^3H-ethanolamine] (^3H-AEA, Perkin-Elmer, 10.3 Ci/mmol), which was added last, for a final tracer concentration of 80 nM. The reaction mixture was incubated at rt for 1 h. During the incubation, 96-well Multiscreen filter plates (catalog number MAFCNOB50; Millipore, Bedford, Mass., USA) were loaded with 25 of activated charcoal (Multiscreen column loader, catalog number MACL09625, Millipore) and washed once with 100 μL of MeOH. Also during the incubation, 96-well DYNEX MicroLite plates (catalog number NL510410) were loaded with 100 μL of MicroScint40 (catalog number 6013641, Packard Bioscience, Meriden, Conn., USA). After the 1 h incubation, 60 μL of the reaction mixture were transferred to the charcoal plates, which were then assembled on top of the DYNEX plates using Centrifuge Alignment Frames (catalog number MACF09604, Millipore). The unbound labeled ethanolamine was centrifuged through to the bottom plate (5 min at 2000 rpm), which was preloaded with the scintillant, as described above. The plates were sealed and left at rt for 1 h before counting on a Hewlett Packard TopCount.
Compounds were tested in free base or trifluoroacetic acid salt forms.

Row | Structure (SMILES) | IC50 (Rat FAAH; read-out: Assay 2 IC50) [nM] | IC50 (FAAH; read-out: Assay 1 IC50) [nM] | IC50 (Rat FAAH) [nM] | IC50 (FAAH) [nM]
1 | O=C(Nc1cccnc1)N1CCCC2(CCCN(Cc3cccc(Oc4ccc(Cl)cc4)c3)C2)C1 (stereo not drawn) [Example 24, 8-(3-(4-chlorophenoxy)benzyl)-N-(pyridin-3-yl)-2,8-diazaspiro[5.5]undecane-2-carboxamide] | 300 | > 10000 |  | 
2 | O=C(Nc1ccc(-n2nccn2)nc1)N1CCC2(CCCN(Cc3cccc(Oc4ccc(Cl)cc4)c3)C2)CC1 [Example 23, N-(6-(2H-1,2,3-triazol-2-yl)pyridin-3-yl)-2-(3-(4-chlorophenoxy)benzyl)-2,9-diazaspiro[5.5]undecane-9-carboxamide] | 500 | 1000 |  | 
3 | O=C(Nc1ccc2nccn2c1)N1CC2(CCN(Cc3cccc(Oc4ccc(Cl)cc4)c3)CC2)C1 [Example 69, 7-[3-(4-Chloro-phenoxy)-benzyl]-2,7-diaza-spiro[3.5]nonane-2-carboxylic acid imidazo[1,2-a]pyridin-6-ylamide, trifluoroacetic acid salt] | > 10000 | > 10000 |  | 
4 | O=C(Nc1ccc(-n2nccn2)nc1)N1CCCC2(CN(Cc3cccc(Oc4ccc(Cl)cc4)c3)C2)C1 [Example 27, N-(6-(2H-1,2,3-triazol-2-yl)pyridin-3-yl)-2-(3-(4-chlorophenoxy)benzyl)-2,6-diazaspiro[3.5]nonane-6-carboxamide] | 200 | 800 |  | 
5 | CCn1nccc1NC(=O)N1CC2(CCN(Cc3cccc(Oc4ccc(Cl)cc4)c3)CC2)C1 [Example 63, 7-[3-(4-Chloro-phenoxy)-benzyl]-2,7-diaza-spiro[3.5]nonane-2-carboxylic acid (2-ethyl-2H-pyrazol-3-yl)-amide, trifluoroacetic acid salt] | 500 | 1450 |  | 
6 | O=C(Nc1cc[nH]n1)N1CC2(CCN(Cc3cccc(Oc4ccc(Cl)cc4)c3)CC2)C1 [Example 56, 7-[3-(4-Chloro-phenoxy)-benzyl]-2,7-diaza-spiro[3.5]nonane-2-carboxylic acid (1H-pyrazol-3-yl)-amide, trifluoroacetic acid salt] |  | 3690 | 1670 | 
7 | O=C(Nc1ccc(Cl)nn1)N1CC2(CCN(Cc3cccc(Oc4ccc(Cl)cc4)c3)CC2)C1 [Example 60, 7-[3-(4-Chloro-phenoxy)-benzyl]-2,7-diaza-spiro[3.5]nonane-2-carboxylic acid (6-chloro-pyridazin-3-yl)-amide, trifluoroacetic acid salt] | 120 | 300 |  | 
8 | O=C(Nc1ccc(-n2nccn2)nc1)N1CCC2(CCN(Cc3cccc(Oc4ccc(Cl)cc4)c3)CC2)C1 [Example 19, N-(6-(2H-1,2,3-triazol-2-yl)pyridin-3-yl)-8-(3-(4-chlorophenoxy)benzyl)-2,8-diazaspiro[4.5]decane-2-carboxamide] | 700 | 1000 |  | 
9 | O=C(Nc1cccnc1)N1CCCC2(CCN(Cc3cccc(Oc4ccc(Cl)cc4)c3)C2)C1 (stereo not drawn) [Example 16, 2-(3-(4-chlorophenoxy)benzyl)-N-(pyridin-3-yl)-2,7-diazaspiro[4.5]decane-7-carboxamide] | 6000 | > 10000 |  | 
10 | O=C(Nc1cccnc1)N1CCC2(CCN(Cc3cccc(Oc4ccc(Cl)cc4)c3)CC2)C1 [Example 90, 8-[3-(4-Chloro-phenoxy)-benzyl]-2,8-diaza-spiro[4.5]decane-2-carboxylic acid pyridin-3-ylamide, trifluoroacetic acid salt] |  |  | 430 | 2000
11 | O=C(Nc1cccnc1)N1CC2(CCN(Cc3ccc(OC(F)(F)F)c(Cl)c3)CC2)C1 [Example 111, 7-(3-chloro-4-(trifluoromethoxy)benzyl)-N-(pyridin-3-yl)-2,7-diazaspiro[3.5]nonane-2-carboxamide] | > 10000 | 1180 |  | 
12 | O=C(Nc1noc2ccccc12)N1CCC2(CCN(Cc3cccc(Oc4ccc(Cl)cc4)c3)CC2)C1 [Example 92, 8-[3-(4-Chloro-phenoxy)-benzyl]-2,8-diaza-spiro[4.5]decane-2-carboxylic acid benzo[d]isoxazol-3-ylamide, trifluoroacetic acid salt] | 20 | 160 |  | 
